Measured values taken from US9216957B2, “Androgen receptor antagonists and uses thereof” (SUZHOU KINTOR PHARMACEUTICALS, INC., priority 2011, dated 2015).
pIC50: −log10 of the molar value.

System: Prostate-specific antigen (PSA) production in LNCaP cells
Assay: PSA Assay (inhibition of PSA production in prostate cancer cells, ELISA)
Assay type: cell-based, human
Details: Homo sapiens, LNCaP, 72 h, read-out: LNCAP IC50 (uM), inhibition of PSA production, LNCaP cells, R1881 1 ng/ml, three days, seven point assay
Protocol: PSA Assay (Inhibition Test of the Compound of the Present Invention on Prostate-Specific Antigen (PSA) Production in Various Prostate Cancer Cells).
Androgen dependent LNCaP cells were purchased from the American Type Culture Collection (ATCC, Manassas, Va.). These cells were grown in RPMI 1640 medium supplemented with 10% fetal bovine serum (FBS), 100 U/mL penicillin, 100 μg/mL streptomycin, and 0.25 μg/mL amphotericin B. The cells were maintained at 37° C. and 5% CO2. LNCaP cells between passage 20 and 35 were used for experiments. LNCaP is a hormone sensitive cell line. For the PSA assay, human prostate cancer cells LNCaP were seeded in a 96-well plate at a concentration of 5000 cells/100 μl/well. On the following day, Methyltrienolone (R1881, AR agonist) (final concentration 1 ng/ml), test compounds or bicalutamide (Casodex®, AstraZeneca) (final concentration 0.005 to 20 μM) were added. Three days after the addition, the concentration of PSA in the supernatant of the culture solution was measured by ELISA. ELISAs for human PSA in culture medium were performed using the ultra-sensitive assay procedure and reagents in the Active™ PSA assay kit (Diagnostic Systems Laboratories Inc., Webster, Tex.). Culture medium and standards (200 μl/well) were incubated in antibody-coated plates for 2 h at room temperature on a Titer plate shaker at 500-600 rpm. Wells were then washed five times. The HRP conjugate was diluted 1:20 with assay buffer, and 100 μl was added to all wells. The plates were incubated for 30 min at room temperature on the shaker and washed as before, and 100 μl TMB (3,3′,5,5′-tetramethylbenzidine, 0.4 g/l) was added. The plates were incubated for 10 min on the shaker, and the reaction was terminated with 100 μl stop solution. The plates were read using a plate reader at 450 nm with a 650 nm reference filter. PSA levels were normalized for differences in growth of LNCaP cells following various treatments as determined by the MTS assay. IC50 of PSA was calculated based on a seven point assay (concentrations of tested compound) and expressed as micromolar (uM).

Point of comparison: `CC1(C)C(=O)N(c2ccc(C#N)c(C(F)(F)F)c2F)C(=S)N1c1ccc(CCCC#N)nc1` [Example 36, 4-(3-(6-(3-cyanopropyl)pyridin-3-yl)-4,4-dimethyl-5-oxo-2-thioxoimidazolidin-1-yl)-3-fluoro-2-(trifluoromethyl)benzonitrile], IC50 0.35 µM. Against it:
- CNC(=O)C1(CCc2ccc(N3C(=S)N(c4ccc(C#N)c(C(F)(F)F)c4F)C(=O)C34CCC4)cc2)CCC1 [Example 35, 1-(2-{4-[7-(4-Cyano-2-fluoro-3-trifluoromethyl-phenyl)-8-oxo-6-thioxo-5,7-diaza-spiro[3.4]oct-5-yl]-phenyl}-ethyl)-cyclobutanecarboxylic acid methylamide] — within 1.5-fold, 0.44 µM
- COC(=O)CCc1ccc(N2C(=S)N(c3ccc(C#N)c(C(F)(F)F)c3F)C(=O)C2(C)C)cc1 [Example 3, methyl 3-(4-(3-(4-cyano-2-fluoro-3-(trifluoromethyl)phenyl)-5,5-dimethyl-4-oxo-2-thioxoimidazolidin-1-yl)phenyl)propanoate] — 22-fold higher, 7.83 µM
- CC1(C)C(=O)N(c2ccc(C#N)c(Cl)c2F)C(=S)N1c1ccc(CCCC#N)c(F)c1 [Example 29, 2-chloro-4-(3-(4-(3-cyanopropyl)-3-fluorophenyl)-4,4-dimethyl-5-oxo-2-thioxoimidazolidin-1-yl)-3-fluorobenzonitrile] — within 1.5-fold, 0.29 µM
- CC1(C)C(=O)N(c2ccc(C#N)c(C(F)(F)F)c2F)C(=S)N1c1ccc(CCCC#N)c(F)c1 [Example 28, 4-(3-(4-(3-cyanopropyl)-3-fluorophenyl)-4,4-dimethyl-5-oxo-2-thioxoimidazolidin-1-yl)-3-fluoro-2-(trifluoromethyl)benzonitrile] — 3.2-fold lower, 0.11 µM
- CC1(C)C(=O)N(c2ccc(C#N)c(C(F)(F)F)c2F)C(=S)N1c1ccc(CCCC(N)=O)cc1 [Example 8, 4-(4-(3-(4-cyano-2-fluoro-3-(trifluoromethyl)phenyl)-5,5-dimethyl-4-oxo-2-thioxoimidazolidin-1-yl)phenyl)butanamide] — within 1.5-fold, 0.43 µM
- CNC(=O)CCCc1ccc(N2C(=S)N(c3ccc(C#N)c(C(F)(F)F)c3F)C(=O)C2(C)C)cn1 [Example 57, 4-{5-[3-(4-Cyano-2-fluoro-3-trifluoromethyl-phenyl)-5,5-dimethyl-4-oxo-2-thioxo-imidazolidin-1-yl]-pyridin-2-yl}-N-methyl-butyramide] — 5.5-fold higher, 1.91 µM
- CNC(=O)C1(CCc2ccc(N3C(=S)N(c4ccc(C#N)c(C(F)(F)F)c4F)C(=O)C3(C)C)cc2)CCC1 [Example 34, 1-(2-{4-[3-(4-Cyano-2-fluoro-3-trifluoromethyl-phenyl)-5,5-dimethyl-4-oxo-2-thioxo-imidazolidin-1-yl]-phenyl}-ethyl)-cyclobutanecarboxylic acid methylamide] — 1.8-fold higher, 0.62 µM
- CC1(C)C(=O)N(c2ccc(C#N)c(C(F)(F)F)c2)C(=S)N1c1ccc(CCCC#N)nc1 [Example 38, 4-(3-(6-(3-cyanopropyl)pyridin-3-yl)-4,4-dimethyl-5-oxo-2-thioxoimidazolidin-1-yl)-2-(trifluoromethyl)benzonitrile] — within 1.5-fold, 0.52 µM
- N#CCCCc1ccc(N2C(=S)N(c3ccc(C#N)c(C(F)(F)F)c3F)C(=O)C23CCC3)cc1 [Example 42, 4-(5-(4-(3-cyanopropyl)phenyl)-8-oxo-6-thioxo-5,7-diazaspiro[3.4]octan-7-yl)-3-fluoro-2-(trifluoromethyl)benzonitrile] — 2.4-fold higher, 0.85 µM
- CNC(=O)COCc1ccc(N2C(=S)N(c3ccc(C#N)c(Cl)c3F)C(=O)C2(C)C)cc1 [Example 18, 2-((4-(3-(3-chloro-4-cyano-2-fluorophenyl)-5,5-dimethyl-4-oxo-2-thioxoimidazolidin-1-yl)benzyl)oxy)-N-methylacetamide] — 1.6-fold higher, 0.56 µM
- N#CCCCc1ccc(N2C(=S)N(c3ccc(C#N)c(C(F)(F)F)c3F)C(=O)C23CCC3)cc1F [Example 31, 4-(5-(4-(3-cyanopropyl)-3-fluorophenyl)-8-oxo-6-thioxo-5,7-diazaspiro[3.4]octan-7-yl)-3-fluoro-2-(trifluoromethyl)benzonitrile] — 1.5-fold higher, 0.53 µM
- CN(C)C(=O)CCCc1ccc(N2C(=S)N(c3ccc(C#N)c(C(F)(F)F)c3F)C(=O)C2(C)C)cc1 [Example 12, 4-{4-[3-(4-Cyano-2-fluoro-3-trifluoromethyl-phenyl)-5,5-dimethyl-4-oxo-2-thioxo-imidazolidin-1-yl]-phenyl}-N,N-dimethyl-butyramide] — 1.7-fold higher, 0.61 µM
- N#Cc1ccc(N2C(=O)C3(CCC3)N(c3ccc(CCCc4nccs4)nc3)C2=S)c(F)c1C(F)(F)F [Example 68, 3-fluoro-4-(8-oxo-5-(6-(3-(thiazol-2-yl)propyl)pyridin-3-yl)-6-thioxo-5,7-diazaspiro[3.4]octan-7-yl)-2-(trifluoromethyl)benzonitrile] — 1.7-fold higher, 0.61 µM
- CNC(=O)C(C)(C)CCc1ccc(N2C(=S)N(c3ccc(C#N)c(Cl)c3F)C(=O)C2(C)C)cc1 [Example 24, 4-{4-[3-(3-Chloro-4-cyano-2-fluoro-phenyl)-5,5-dimethyl-4-oxo-2-thioxo-imidazolidin-1-yl]-phenyl}-2,2,N-trimethyl-butyramide] — 3.1-fold higher, 1.09 µM
- CNC(=O)CCCc1ccc(N2C(=S)N(c3cc(C(F)(F)F)c(C#N)cc3F)C(=O)C2(C)C)cc1F [Example 45, 4-(4-(3-(4-cyano-2-fluoro-5-(trifluoromethyl)phenyl)-5,5-dimethyl-4-oxo-2-thioxoimidazolidin-1-yl)-2-fluorophenyl)-N-methylbutanamide] — 5.9-fold higher, 2.05 µM
- CNC(=O)C(C)(C)CCc1ccc(N2C(=S)N(c3ccc(C#N)c(OC)c3F)C(=O)C2(C)C)cc1 [Example 23, 4-{4-[3-(4-Cyano-2-fluoro-3-methoxy-phenyl)-5,5-dimethyl-4-oxo-2-thioxo-imidazolidin-1-yl]-phenyl}-2,2,N-trimethyl-butyramide] — 2.5-fold higher, 0.89 µM
- CC1(C)C(=O)N(c2ccc(C#N)c(Cl)c2F)C(=S)N1c1ccc(CCCc2ncc[nH]2)cc1 [Example 20, 2-Chloro-3-fluoro-4-(3-{4-[3-(1H-imidazol-2-yl)-propyl]-phenyl}-4,4-dimethyl-5-oxo-2-thioxo-imidazolidin-1-yl)-benzonitrile] — 6.1-fold higher, 2.14 µM
- CC1(C)C(=O)N(c2ccc(C#N)c(C(F)(F)F)c2)C(=S)N1c1ccc(CCCC(=O)N2CC(O)C2)c(F)c1 [Example 48, 4-(3-{3-Fluoro-4-[4-(3-hydroxy-azetidin-1-yl)-4-oxo-butyl]-phenyl}-4,4-dimethyl-5-oxo-2-thioxo-imidazolidin-1-yl)-2-trifluoromethyl-benzonitrile] — 3-fold higher, 1.04 µM
- CNC(=O)CCCc1ccc(N2C(=S)N(c3ccc(C#N)c(Cl)c3F)C(=O)C23CCC3)cc1 [Example 11, 4-(4-(7-(3-chloro-4-cyano-2-fluorophenyl)-8-oxo-6-thioxo-5,7-diazaspiro[3.4]octan-5-yl)phenyl)-N-methylbutanamide] — 1.5-fold higher, 0.54 µM
- CC1(C)C(=O)N(c2ccc(C#N)c(C(F)(F)F)c2F)C(=S)N1c1ccc(CCCC#N)cc1 [Example 40, 4-(3-(4-(3-cyanopropyl)phenyl)-4,4-dimethyl-5-oxo-2-thioxoimidazolidin-1-yl)-3-fluoro-2-(trifluoromethyl)benzonitrile] — within 1.5-fold, 0.3 µM
- CC1(C)C(=O)N(c2ccc(C#N)c(Cl)c2F)C(=S)N1c1ccc(CCCC#N)cc1 [Example 41, 2-chloro-4-(3-(4-(3-cyanopropyl)phenyl)-4,4-dimethyl-5-oxo-2-thioxoimidazolidin-1-yl)-3-fluorobenzonitrile] — within 1.5-fold, 0.32 µM
- CNC(=O)CCCc1ccc(N2C(=S)N(c3ccc(C#N)c(Cl)c3F)C(=O)C2(C)C)cc1 [Example 7, 4-(4-(3-(3-chloro-4-cyano-2-fluorophenyl)-5,5-dimethyl-4-oxo-2-thioxoimidazolidin-1-yl)phenyl)-N-methylbutanamide] — 1.9-fold higher, 0.65 µM
- CC1(C)C(=O)N(c2ccc(C#N)c(C(F)(F)F)c2F)C(=S)N1c1ccc(CCCC(=O)N2CC(O)C2)c(F)c1 [Example 47, 3-Fluoro-4-(3-{3-fluoro-4-[4-(3-hydroxy-azetidin-1-yl)-4-oxo-butyl]-phenyl}-4,4-dimethyl-5-oxo-2-thioxo-imidazolidin-1-yl)-2-trifluoromethyl-benzonitrile] — within 1.5-fold, 0.48 µM

Same assay, conditions: Homo sapiens; LNCaP cells; read-out: IC50 of inhibition of PSA production in LNCaP cells

In the case of `CC(O)(CS(=O)(=O)c1ccc(F)cc1)C(=O)Nc1ccc(C#N)c(C(F)(F)F)c1` (centres unmarked) [Bicalutamide, reference compound], the pIC50 was 5.51.

Same assay, conditions: read-out: LNCAP IC50; inhibition of PSA production, LNCaP cells, R1881 1 ng/ml, three days, seven point assay

Molecule `CC1(C)C(=O)N(c2ccc(C#N)c(Cl)c2F)C(=S)N1c1ccc(CCCC#N)cc1` [Example 59, 2-chloro-4-(3-(4-(3-cyanopropyl)phenyl)-4,4-dimethyl-5-oxo-2-thioxoimidazolidin-1-yl)-3-fluorobenzonitrile] has a pIC50 of 6.32.
